Data taken from patent publication US20170189547A1, “Biodegradable Drug Delivery Composition” (Durect Corporation, priority 2010, published 2017).

Target: T1, hGH (Homo sapiens, UniProt P01241)
T1 construct: purchased Hospira, Adelaide
Assay: Complexation capability of hGH with anionic and cationic agents (non-complexed hGH in supernatant by RPLC)
Assay type: physicochemical
Conditions: for Observation: hGH with complexing agent; for Supernatant Analysis (% of hGH): non-complexed hGH by RPLC
Procedure: Additional complexation agents were tested in vitro for their ability to precipitate rhGH.
Human growth hormone (purchased from Hospira, Adelaide) was complexed with poly lysine, poly arginine, poly adenylic acid (poly-A), or poly thymine (poly-T) in appropriate ratios (as specified in Table 28) to form suspensions. Supernatant was separated from precipitate (ppt) by centrifugation of the complexed material suspensions. The supernatant solution was analyzed for non-complexed hGH by reverse phase liquid chromatography (RPLC).

T1 sequence (P01241 27-217): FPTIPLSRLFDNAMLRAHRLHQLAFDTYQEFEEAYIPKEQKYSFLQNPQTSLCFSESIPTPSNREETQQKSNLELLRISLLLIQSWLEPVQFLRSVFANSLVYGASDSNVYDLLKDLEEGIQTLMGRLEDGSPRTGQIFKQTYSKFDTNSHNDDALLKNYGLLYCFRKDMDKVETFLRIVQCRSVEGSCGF

With Hyaluronic Acid the Observation (concentration ratio 1:2) was “No ppt” and the “Supernatant Analysis (% of hGH)” value (concentration ratio 1:2) was >90 % of hGH.
In the case of Poly-Lysine, the Observation (concentration ratio 1:10) is reported as “Cloudy ppt” and the “Supernatant Analysis (% of hGH)” value (concentration ratio 1:10) is reported as 9.5 % of hGH.
